One assay concerns the target cGMP-specific 3',5'-cyclic phosphodiesterase (Homo sapiens, UniProt O76074). In words: DRUGMATRIX: Phosphodiesterase PDE5 enzyme inhibition (substrate: [3H]cGMP + cGMP). The settings on record: platelet; Not Active = under 50% inhibition at 10 µM. The format is tissue-based, Platelet.
Sequence of Mitogen-activated protein kinase 3 (P27361 whole entry): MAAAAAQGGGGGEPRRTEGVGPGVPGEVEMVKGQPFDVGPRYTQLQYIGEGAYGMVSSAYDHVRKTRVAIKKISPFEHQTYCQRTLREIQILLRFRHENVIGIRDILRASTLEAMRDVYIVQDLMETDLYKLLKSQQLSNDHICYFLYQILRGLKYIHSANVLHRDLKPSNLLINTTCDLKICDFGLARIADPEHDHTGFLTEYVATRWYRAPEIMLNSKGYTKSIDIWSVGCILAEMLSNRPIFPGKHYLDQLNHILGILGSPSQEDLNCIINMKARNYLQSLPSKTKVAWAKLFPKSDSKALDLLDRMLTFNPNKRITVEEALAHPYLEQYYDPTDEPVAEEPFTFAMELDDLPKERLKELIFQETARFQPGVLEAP
Sequence of Cannabinoid receptor 1 (P21554 whole entry): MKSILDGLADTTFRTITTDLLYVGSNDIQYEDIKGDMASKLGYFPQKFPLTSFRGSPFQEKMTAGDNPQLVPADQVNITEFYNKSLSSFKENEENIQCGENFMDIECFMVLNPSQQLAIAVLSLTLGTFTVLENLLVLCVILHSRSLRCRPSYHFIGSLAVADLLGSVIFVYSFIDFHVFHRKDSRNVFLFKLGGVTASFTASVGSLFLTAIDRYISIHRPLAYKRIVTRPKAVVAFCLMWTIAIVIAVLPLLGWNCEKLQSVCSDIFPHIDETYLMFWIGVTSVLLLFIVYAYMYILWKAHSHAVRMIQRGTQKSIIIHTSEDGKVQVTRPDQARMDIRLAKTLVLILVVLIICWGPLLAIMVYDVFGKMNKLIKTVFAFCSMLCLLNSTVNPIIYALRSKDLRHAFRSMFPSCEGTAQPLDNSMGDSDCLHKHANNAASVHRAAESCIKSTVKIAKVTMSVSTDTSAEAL
`Nc1ccc(S(N)(=O)=O)cc1` [SULFANILAMIDE]: the IC50 result is listed as “Not Active”.
Still for that read-out and setting: the same measure for `CC1CN(c2cc3c(cc2F)c(=O)c(C(=O)O)cn3-c2ccc(F)cc2F)CCN1` (stereo unspecified) [TEMAFLOXACIN]: “Not Active”; for `COS(C)(=O)=O` [METHANESULFONIC ACID METHYL ESTER]: “Not Active”.

Test system in another assay: not listed separately
Nature of the assay: DRUGMATRIX: Platelet-Derived Growth Factor (PDGF) radioligand binding (ligand: [125I] PDGF). Type of assay: cell-based. The conditions noted are these: nih3t3; Not Active = under 50% inhibition at 10 µM.
For `Nc1ccc(S(N)(=O)=O)cc1` [SULFANILAMIDE], the IC50 entry is given as “Not Active” and the Ki entry is “Not Active”.
In the case of `CC1CN(c2cc3c(cc2F)c(=O)c(C(=O)O)cn3-c2ccc(F)cc2F)CCN1` (stereo unspecified) [TEMAFLOXACIN], the IC50 result is reported as “Not Active” and the Ki entry is “Not Active”.
As to `COS(C)(=O)=O` [METHANESULFONIC ACID METHYL ESTER], the IC50 result is recorded as “Not Active” and the Ki result is listed as “Not Active”.

Test system in the next assay: not listed separately
Nature of the assay: DRUGMATRIX: Potassium Channel [KATP] radioligand binding (ligand: [3H] Glyburide). The conditions noted are these: hit-t15; Not Active = under 50% inhibition at 10 µM. Type of assay: cell membranes, Membrane.
Take `Nc1ccc(S(N)(=O)=O)cc1` [SULFANILAMIDE]: the IC50 result is on record as “Not Active” and the Ki result is given as “Not Active”.
With `CC1CN(c2cc3c(cc2F)c(=O)c(C(=O)O)cn3-c2ccc(F)cc2F)CCN1` (stereo unspecified) [TEMAFLOXACIN], the IC50 result is on record as “Not Active” and the Ki entry is “Not Active”.
As to `COS(C)(=O)=O` [METHANESULFONIC ACID METHYL ESTER], the IC50 result is “Not Active” and the Ki entry is “Not Active”.

The target of a further assay is T1, Substance-K receptor (Homo sapiens, UniProt P21452). Note: in other assays of this panel Not Active means under 50% inhibition at 10 µM.
T1 sequence (P21452 whole entry): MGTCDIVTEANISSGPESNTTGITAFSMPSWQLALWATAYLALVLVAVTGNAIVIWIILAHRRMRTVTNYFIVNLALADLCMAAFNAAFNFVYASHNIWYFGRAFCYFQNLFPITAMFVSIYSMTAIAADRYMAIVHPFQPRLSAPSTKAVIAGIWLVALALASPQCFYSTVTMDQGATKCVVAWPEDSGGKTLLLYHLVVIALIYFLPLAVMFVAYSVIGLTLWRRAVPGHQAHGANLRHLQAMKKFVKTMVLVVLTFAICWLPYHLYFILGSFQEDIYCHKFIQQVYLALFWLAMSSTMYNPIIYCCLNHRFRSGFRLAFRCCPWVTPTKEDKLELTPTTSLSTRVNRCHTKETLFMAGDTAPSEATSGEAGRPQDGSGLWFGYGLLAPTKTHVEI
The format is cell membranes, CHO, Membrane. The conditions noted are these: cho.
Take `Nc1ccc(S(N)(=O)=O)cc1` [SULFANILAMIDE]: the IC50 result is reported as “Not Active”.
Still for that read-out and setting: the same measure for `CC1CN(c2cc3c(cc2F)c(=O)c(C(=O)O)cn3-c2ccc(F)cc2F)CCN1` (stereo unspecified) [TEMAFLOXACIN]: “Not Active”; for `COS(C)(=O)=O` [METHANESULFONIC ACID METHYL ESTER]: “Not Active”.

The target of a further assay is T2, B2 bradykinin receptor (Homo sapiens, UniProt P30411). Note: in other assays of this panel Not Active means under 50% inhibition at 10 µM.
T2 sequence (P30411 whole entry): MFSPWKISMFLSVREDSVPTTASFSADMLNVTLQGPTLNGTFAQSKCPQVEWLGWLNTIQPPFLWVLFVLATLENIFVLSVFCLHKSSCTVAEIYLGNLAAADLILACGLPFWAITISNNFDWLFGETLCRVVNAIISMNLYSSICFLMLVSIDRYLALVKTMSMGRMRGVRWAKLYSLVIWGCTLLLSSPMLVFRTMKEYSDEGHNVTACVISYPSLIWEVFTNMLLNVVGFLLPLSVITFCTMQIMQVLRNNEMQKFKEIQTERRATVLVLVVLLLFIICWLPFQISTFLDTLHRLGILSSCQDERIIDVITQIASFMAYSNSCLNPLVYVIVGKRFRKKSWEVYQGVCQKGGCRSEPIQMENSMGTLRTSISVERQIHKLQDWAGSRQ
The format is cell membranes, Membrane. The conditions noted are these: chem-1.
With `Nc1ccc(S(N)(=O)=O)cc1` [SULFANILAMIDE], the IC50 result was “Not Active”.
For `CC1CN(c2cc3c(cc2F)c(=O)c(C(=O)O)cn3-c2ccc(F)cc2F)CCN1` (stereo unspecified) [TEMAFLOXACIN], the IC50 entry is “Not Active”.
The same measure, in the same setting: the entry for `COS(C)(=O)=O` [METHANESULFONIC ACID METHYL ESTER] is “Not Active”.

A further assay concerns the target Mitogen-activated protein kinase 3 (Homo sapiens, UniProt P27361). In words: DRUGMATRIX: Protein Serine/Threonine Kinase, ERK1 enzyme inhibition (substrate: Myelin Basic Protein). On the set-up: species or system Escherichia coli. The settings on record: Not Active = under 50% inhibition at 10 µM.
Take `Nc1ccc(S(N)(=O)=O)cc1` [SULFANILAMIDE]: the IC50 entry is “Not Active”.
As to `CC1CN(c2cc3c(cc2F)c(=O)c(C(=O)O)cn3-c2ccc(F)cc2F)CCN1` (stereo unspecified) [TEMAFLOXACIN], the IC50 result is “Not Active”.
Regarding `COS(C)(=O)=O` [METHANESULFONIC ACID METHYL ESTER], the IC50 result is listed as “Not Active”.

A further assay deals with T3, Alpha-2C adrenergic receptor (Homo sapiens, UniProt P18825).
T3 sequence (P18825 whole entry): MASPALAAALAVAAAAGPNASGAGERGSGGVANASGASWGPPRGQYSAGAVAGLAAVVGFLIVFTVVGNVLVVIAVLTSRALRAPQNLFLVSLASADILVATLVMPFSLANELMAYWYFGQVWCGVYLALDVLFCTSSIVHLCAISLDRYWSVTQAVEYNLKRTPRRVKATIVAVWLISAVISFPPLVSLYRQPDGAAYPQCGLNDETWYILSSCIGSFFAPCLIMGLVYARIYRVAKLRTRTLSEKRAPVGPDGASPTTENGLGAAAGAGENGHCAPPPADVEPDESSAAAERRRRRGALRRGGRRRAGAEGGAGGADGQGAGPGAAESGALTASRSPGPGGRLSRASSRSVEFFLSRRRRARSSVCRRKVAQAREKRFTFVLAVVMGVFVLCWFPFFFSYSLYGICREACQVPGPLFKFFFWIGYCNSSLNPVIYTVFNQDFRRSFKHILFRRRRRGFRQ
Nature of the assay: DRUGMATRIX: Adrenergic Alpha-2C radioligand binding (ligand: [3H] MK-912). Type of assay: cell membranes, Sf9, Membrane. The settings on record: sf9.
With `Nc1ccc(S(N)(=O)=O)cc1` [SULFANILAMIDE], the IC50 result is “Not Active”.
Still for that read-out and setting: the entry for `CC1CN(c2cc3c(cc2F)c(=O)c(C(=O)O)cn3-c2ccc(F)cc2F)CCN1` (stereo unspecified) [TEMAFLOXACIN] is “Not Active”.
`COS(C)(=O)=O` [METHANESULFONIC ACID METHYL ESTER]: the IC50 result is “Not Active”.

The target in a further assay is Acetylcholinesterase (Homo sapiens, UniProt P22303). In words: DRUGMATRIX: Acetylcholinesterase enzyme inhibition (substrate: acetylthiocholine). The format is cell-based, HEK293. The conditions noted are these: hek293; Not Active = under 50% inhibition at 10 µM.
Sequence of Acetylcholinesterase (P22303 whole entry): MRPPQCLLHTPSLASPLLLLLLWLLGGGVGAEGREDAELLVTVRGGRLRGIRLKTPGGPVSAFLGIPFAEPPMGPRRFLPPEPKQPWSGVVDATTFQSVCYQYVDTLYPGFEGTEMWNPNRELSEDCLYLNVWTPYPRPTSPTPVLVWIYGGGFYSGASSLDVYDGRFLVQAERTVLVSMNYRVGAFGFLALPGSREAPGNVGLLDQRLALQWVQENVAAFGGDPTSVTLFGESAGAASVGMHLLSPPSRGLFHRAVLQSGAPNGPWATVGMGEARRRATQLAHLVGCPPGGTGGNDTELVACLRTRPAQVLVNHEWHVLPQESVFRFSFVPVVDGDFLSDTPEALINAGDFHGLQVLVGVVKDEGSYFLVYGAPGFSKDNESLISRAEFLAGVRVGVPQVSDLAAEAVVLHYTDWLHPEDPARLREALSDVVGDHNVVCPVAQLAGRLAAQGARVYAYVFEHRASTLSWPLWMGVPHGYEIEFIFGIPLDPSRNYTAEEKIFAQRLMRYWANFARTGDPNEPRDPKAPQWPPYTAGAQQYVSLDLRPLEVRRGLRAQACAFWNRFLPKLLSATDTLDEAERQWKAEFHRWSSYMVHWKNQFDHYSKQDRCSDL
On to `Nc1ccc(S(N)(=O)=O)cc1` [SULFANILAMIDE], for which the IC50 entry was “Not Active”.
The same measure, in the same setting: the same measure for `CC1CN(c2cc3c(cc2F)c(=O)c(C(=O)O)cn3-c2ccc(F)cc2F)CCN1` (stereo unspecified) [TEMAFLOXACIN]: “Not Active”.
Same read-out and setting: the entry for `COS(C)(=O)=O` [METHANESULFONIC ACID METHYL ESTER] is “Not Active”.

For the next assay, the target named is T4, C-X-C chemokine receptor type 1 (Homo sapiens, UniProt P25024). Note: in other assays of this panel Not Active means under 50% inhibition at 10 µM.
T4 sequence (P25024 whole entry): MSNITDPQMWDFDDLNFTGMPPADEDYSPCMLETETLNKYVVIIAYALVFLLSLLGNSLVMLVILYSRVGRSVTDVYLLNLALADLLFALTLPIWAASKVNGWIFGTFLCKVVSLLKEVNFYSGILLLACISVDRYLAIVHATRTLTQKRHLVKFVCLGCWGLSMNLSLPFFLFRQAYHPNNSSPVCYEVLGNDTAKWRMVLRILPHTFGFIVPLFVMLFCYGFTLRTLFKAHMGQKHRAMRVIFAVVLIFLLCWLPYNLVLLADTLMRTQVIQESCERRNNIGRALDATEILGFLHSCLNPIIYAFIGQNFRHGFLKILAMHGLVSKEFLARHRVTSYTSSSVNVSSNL
Conditions: not given
In the case of `Nc1ccc(S(N)(=O)=O)cc1` [SULFANILAMIDE], the IC50 result was “Not Active”.
The same measure, in the same setting: the same measure for `CC1CN(c2cc3c(cc2F)c(=O)c(C(=O)O)cn3-c2ccc(F)cc2F)CCN1` (stereo unspecified) [TEMAFLOXACIN]: “Not Active”; for `COS(C)(=O)=O` [METHANESULFONIC ACID METHYL ESTER]: “Not Active”.

The next assay has as its target Cannabinoid receptor 1 (Homo sapiens, UniProt P21554). Type of assay: cell membranes, Membrane. The conditions noted are these: chem-1. Note: in other assays of this panel Not Active means under 50% inhibition at 10 µM.
`Nc1ccc(S(N)(=O)=O)cc1` [SULFANILAMIDE]: the IC50 result is “Not Active”.
Still for that read-out and setting: the entry for `CC1CN(c2cc3c(cc2F)c(=O)c(C(=O)O)cn3-c2ccc(F)cc2F)CCN1` (stereo unspecified) [TEMAFLOXACIN] is “Not Active”; for `COS(C)(=O)=O` [METHANESULFONIC ACID METHYL ESTER] it is “Not Active”.

In a further assay the target is Adenosine receptor A2a (Homo sapiens, UniProt P29274). Nature of the assay: DRUGMATRIX: Adenosine A2A radioligand binding (ligand: […]). Type of assay: cell membranes, HEK293, Membrane. The conditions noted are these: hek293; Not Active = under 50% inhibition at 10 µM.
Sequence of Adenosine receptor A2a (P29274 whole entry): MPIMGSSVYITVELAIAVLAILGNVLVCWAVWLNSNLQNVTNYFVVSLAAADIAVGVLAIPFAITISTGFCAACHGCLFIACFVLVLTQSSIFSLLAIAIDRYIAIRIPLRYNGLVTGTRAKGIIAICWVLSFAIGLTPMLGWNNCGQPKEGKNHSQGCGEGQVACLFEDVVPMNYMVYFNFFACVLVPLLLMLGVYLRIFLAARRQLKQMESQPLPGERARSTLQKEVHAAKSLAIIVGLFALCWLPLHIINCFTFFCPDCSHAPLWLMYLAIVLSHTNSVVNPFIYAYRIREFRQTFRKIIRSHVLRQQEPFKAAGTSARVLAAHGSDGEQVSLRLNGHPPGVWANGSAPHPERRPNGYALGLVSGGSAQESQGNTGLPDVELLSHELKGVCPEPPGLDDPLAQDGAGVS
`Nc1ccc(S(N)(=O)=O)cc1` [SULFANILAMIDE]: the IC50 result is on record as “Not Active”.
On the same count and under the same terms, the entry for `CC1CN(c2cc3c(cc2F)c(=O)c(C(=O)O)cn3-c2ccc(F)cc2F)CCN1` (stereo unspecified) [TEMAFLOXACIN] is “Not Active”; for `COS(C)(=O)=O` [METHANESULFONIC ACID METHYL ESTER] it is “Not Active”.

Test system in a further assay: not listed separately
Nature of the assay: DRUGMATRIX: GABAA, Chloride Channel, TBOB radioligand binding (ligand: [3H] TBOB). The format is cell membranes, Rattus norvegicus, Wistar, Cerebral cortex, Membrane. The settings on record: Not Active = under 50% inhibition at 10 µM.
As to `Nc1ccc(S(N)(=O)=O)cc1` [SULFANILAMIDE], the IC50 result is “Not Active” and the Ki entry is recorded as “Not Active”.
For the molecule `CC1CN(c2cc3c(cc2F)c(=O)c(C(=O)O)cn3-c2ccc(F)cc2F)CCN1` (stereo unspecified) [TEMAFLOXACIN], the IC50 entry is recorded as “Not Active” and the Ki result is on record as “Not Active”.
Take `COS(C)(=O)=O` [METHANESULFONIC ACID METHYL ESTER]: the IC50 result was “Not Active” and the Ki result is given as “Not Active”.

The next assay addresses Protein phosphatase 3 catalytic subunit alpha (Homo sapiens, UniProt Q08209). On the set-up: species or system Escherichia coli.
Conditions: not given
Turning to `Nc1ccc(S(N)(=O)=O)cc1` [SULFANILAMIDE], the IC50 result is “Not Active”.
Turning to `CC1CN(c2cc3c(cc2F)c(=O)c(C(=O)O)cn3-c2ccc(F)cc2F)CCN1` (stereo unspecified) [TEMAFLOXACIN], the IC50 result is “Not Active”.
`COS(C)(=O)=O` [METHANESULFONIC ACID METHYL ESTER]: the IC50 entry is “Not Active”.

For another assay, the target named is Nitric oxide synthase 1 (Rattus norvegicus, UniProt P29476). Type of assay: tissue-based, Cerebellum. Note: in other assays of this panel Not Active means under 50% inhibition at 10 µM.
Sequence of Nitric oxide synthase 1 (P29476 whole entry): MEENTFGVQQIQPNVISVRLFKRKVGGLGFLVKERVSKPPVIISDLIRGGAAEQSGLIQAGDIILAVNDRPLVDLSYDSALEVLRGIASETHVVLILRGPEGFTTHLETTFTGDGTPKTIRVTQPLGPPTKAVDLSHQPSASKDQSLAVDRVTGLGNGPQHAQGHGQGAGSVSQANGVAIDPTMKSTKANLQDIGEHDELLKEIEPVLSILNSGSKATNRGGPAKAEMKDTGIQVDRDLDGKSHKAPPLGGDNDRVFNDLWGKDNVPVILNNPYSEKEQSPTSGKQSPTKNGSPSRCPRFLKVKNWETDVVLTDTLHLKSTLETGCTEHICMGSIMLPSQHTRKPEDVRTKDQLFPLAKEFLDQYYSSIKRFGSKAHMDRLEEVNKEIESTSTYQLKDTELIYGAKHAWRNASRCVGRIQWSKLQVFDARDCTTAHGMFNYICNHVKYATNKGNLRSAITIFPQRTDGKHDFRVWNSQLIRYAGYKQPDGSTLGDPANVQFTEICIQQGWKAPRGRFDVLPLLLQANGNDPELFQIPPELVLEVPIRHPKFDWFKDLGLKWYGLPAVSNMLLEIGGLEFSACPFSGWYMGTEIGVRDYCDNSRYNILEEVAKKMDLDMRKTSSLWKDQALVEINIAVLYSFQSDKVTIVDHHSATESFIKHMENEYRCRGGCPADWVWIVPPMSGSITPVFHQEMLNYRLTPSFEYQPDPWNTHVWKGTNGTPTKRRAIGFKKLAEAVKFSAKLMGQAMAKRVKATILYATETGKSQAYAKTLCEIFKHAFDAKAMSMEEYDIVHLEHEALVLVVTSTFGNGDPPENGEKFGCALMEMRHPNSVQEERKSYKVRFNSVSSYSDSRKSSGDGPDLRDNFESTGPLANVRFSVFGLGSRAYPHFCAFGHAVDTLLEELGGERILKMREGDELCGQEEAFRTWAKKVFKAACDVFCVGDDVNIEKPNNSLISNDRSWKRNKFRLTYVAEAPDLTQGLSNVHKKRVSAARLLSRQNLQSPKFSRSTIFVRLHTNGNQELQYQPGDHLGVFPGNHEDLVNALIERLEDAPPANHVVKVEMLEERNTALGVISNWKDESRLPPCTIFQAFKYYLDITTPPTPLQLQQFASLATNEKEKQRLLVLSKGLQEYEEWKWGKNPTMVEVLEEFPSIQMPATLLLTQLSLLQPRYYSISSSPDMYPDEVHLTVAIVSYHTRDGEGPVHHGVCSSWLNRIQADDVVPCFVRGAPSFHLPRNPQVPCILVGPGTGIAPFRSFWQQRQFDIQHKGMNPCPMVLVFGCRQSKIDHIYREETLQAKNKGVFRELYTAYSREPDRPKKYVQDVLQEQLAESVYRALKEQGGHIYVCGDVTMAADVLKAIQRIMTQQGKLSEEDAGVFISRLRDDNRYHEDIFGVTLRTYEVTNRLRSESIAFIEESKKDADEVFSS
Conditions: not given
`Nc1ccc(S(N)(=O)=O)cc1` [SULFANILAMIDE]: the IC50 entry is recorded as “Not Active”.
Still for that read-out and setting: the same measure for `CC1CN(c2cc3c(cc2F)c(=O)c(C(=O)O)cn3-c2ccc(F)cc2F)CCN1` (stereo unspecified) [TEMAFLOXACIN]: “Not Active”; for `COS(C)(=O)=O` [METHANESULFONIC ACID METHYL ESTER]: “Not Active”.

Source of the values: ChEMBL document CHEMBL1909046, “DrugMatrix in vitro pharmacology data”.
